Laboratory results taken from US20260224658A1, “PRODUCTS AND METHODS FOR THE DIAGNOSIS AND TREATMENT OF P[…]” (priority 2023, published 2026).
In brackets after ≈: the same amount, converted by molar mass.

Legend:
Type in all cases: cell-based, Pseudomonas aeruginosa
MPAO1-ΔmutS [1] = assay: MIC, microbroth dilution assay
Procedure: (§1) MIC experiments were performed using biological triplicates.

MPAO1-ΔmutL [2] = assay: MIC, microbroth dilution assay
Procedure: as §1

PAO1 = assay: microbe, parasite or virus in culture; settings: strain PAO1
Procedure: as §1

MPAO1 [3] = assay: microbe, parasite or virus in culture; settings: strain MPAO1
Procedure: as §1

MPAO1-ΔmutS [4] = assay: In vitro adaptive evolution (serial passaging) with MIC determination; settings: for MIC: Pseudomonas aeruginosa
Procedure: (§2) MICs were determined via microbroth dilution assay in 96-well culture plates with 2-fold serial dilutions of tested antibiotic in Mueller-Hinton (cation-adjusted) broth, inoculated with 50 μL of 2.75×10^5 CFU/mL of each bacterial strain and incubated at 37° C., 200 rpm for 24 hours. MIC experiments were performed using biological triplicates.
(§3) Serial passaging of bacterial strains was performed in 96-well culture plates with 2-fold serial dilutions of antibiotic in MH broth, inoculated with 50 μL 2.75×10^5 CFU/mL of each strain and incubated at 37° C., 200 rpm for 24 hours. […] The bacteria were then serially passaged in the same antibiotic and MIC determined for all antibiotics (aztreonam, ciprofloxacin, D-CONGA, D-CONGA-Q7, polymyxin B). See Antimicrobial susceptibility testing section. The bacteria were serially passaged a total of 10 times.
(§4) All resistance acquisition data was analyzed in units of fold-change to normalize for differences in starting MIC across strains. Fold-change in MIC data for all strains and treatment groups was natural log-transformed and simple linear regression was performed considering each replicate fold-change value as an individual point. Slope, standard error of slope, and total number of values of each treatment group of interest were analyzed via unpaired t-test (ΔmutS vs WT) or ordinary one-way ANOVA (cross-resistance acquisition of ΔmutS+AB vs −AB vs WT), and α-values were corrected for multiple comparisons using the Bonferroni method. Differences in estimated mutation rate across treatment groups were determined via ordinary one-way ANOVA (Brown-Forsythe test). For all statistical tests, p<0.05 was considered significant. All figures were created and statistical tests were done using GraphPad Prism 9.3.1.

MPAO1-ΔmutL [5] = assay: as above; settings: for MIC: Pseudomonas aeruginosa
Procedure: as §2, §3, §4

MPAO1 [6] = assay: as above; settings: for MIC: Pseudomonas aeruginosa
Procedure: as §2, §3, §4

[7] = Pseudomonas aeruginosa, read-out: MIC, average of triplicates
[8] = MPAO1-ΔmutS evolved in AZ + COL
[9] = MPAO1-ΔmutS evolved in AZ + D-CONGA
[10] = MPAO1-ΔmutS evolved in AZ + D-CONGA-Q7
[11] = MPAO1-ΔmutS evolved in D-CONGA-Q7
[12] = MPAO1-ΔmutS passaged with No Antibiotic (Table 4)
[13] = MPAO1-ΔmutS passaged with No Antibiotic (Table 8)
[14] = MPAO1-ΔmutL evolved in Chl + Str
[15] = MPAO1-ΔmutL passaged with No Antibiotic
[16] = MPAO1 evolved in AZ + D-CONGA-Q7
[17] = MPAO1 passaged with No Antibiotic (Table 4)
[18] = MPAO1 passaged with No Antibiotic (Table 8)

C[C@H]1[C@H](NC(=O)/C(=N\OC(C)(C)C(=O)O)c2csc(N)n2)C(=O)N1S(=O)(=O)O [Aztreonam]
MIC (MPAO1-ΔmutS [1]; [7]): 13 mg/L (≈ 29.9 µM) | MIC (MPAO1-ΔmutL [2]; [7]): 30 mg/L (≈ 68.9 µM) | MIC (PAO1; [7]): 3 mg/L (≈ 6.89 µM) | MIC (MPAO1 [3]; [7]): 2 mg/L (≈ 4.59 µM) | MIC (MPAO1-ΔmutS [4]; read-out: Average MIC at end point, MPAO1-ΔmutS evolved in AZ): 107 mg/L (≈ 246 µM) | MIC (MPAO1-ΔmutS [4]; read-out: Average MIC at end point, MPAO1-ΔmutS evolved in AZ + COL): 16 mg/L | MIC (MPAO1-ΔmutS [4]; read-out: Average MIC at end point, MPAO1-ΔmutS evolved in AZ + D-CONGA): 18 mg/L | MIC (MPAO1-ΔmutS [4]; read-out: Average MIC at end point, MPAO1-ΔmutS evolved in AZ + D-CONGA-Q7): 16 mg/L | MIC (MPAO1-ΔmutS [4]; read-out: Average MIC at end point, MPAO1-ΔmutS evolved in Chl): 32 mg/L (≈ 73.5 µM) | MIC (MPAO1-ΔmutS [4]; read-out: Average MIC at end point, MPAO1-ΔmutS evolved in D-CONGA): 16 mg/L (≈ 36.7 µM) | MIC (MPAO1-ΔmutS [4]; read-out: Average MIC at end point, MPAO1-ΔmutS evolved in D-CONGA-Q7): 4 mg/L (≈ 9.19 µM) | MIC (MPAO1-ΔmutS [4]; read-out: Average MIC at end point, MPAO1-ΔmutS passaged with No Antibiotic (Table 4)): 8 mg/L (≈ 18.4 µM) | MIC (MPAO1-ΔmutS [4]; read-out: Average MIC at end point, MPAO1-ΔmutS passaged with No Antibiotic (Table 8)): 5 mg/L (≈ 11.5 µM) | MIC (MPAO1-ΔmutL [5]; read-out: Average MIC at end point, MPAO1-ΔmutL evolved in Chl + Str): 32 mg/L | MIC (MPAO1-ΔmutL [5]; read-out: Average MIC at end point, MPAO1-ΔmutL passaged with No Antibiotic): 11 mg/L (≈ 25.3 µM) | MIC (MPAO1 [6]; read-out: Average MIC at end point, MPAO1 evolved in AZ): 8 mg/L (≈ 18.4 µM) | MIC (MPAO1 [6]; read-out: Average MIC at end point, MPAO1 evolved in AZ + COL): 19 mg/L | MIC (MPAO1 [6]; read-out: Average MIC at end point, MPAO1 evolved in AZ + D-CONGA): 11 mg/L | MIC (MPAO1 [6]; read-out: Average MIC at end point, MPAO1 evolved in AZ + D-CONGA-Q7): 4 mg/L | MIC (MPAO1 [6]; read-out: Average MIC at end point, MPAO1 evolved in Chl + Str): 3 mg/L | MIC (MPAO1 [6]; read-out: Average MIC at end point, MPAO1 evolved in D-CONGA): 7 mg/L (≈ 16.1 µM) | MIC (MPAO1 [6]; read-out: Average MIC at end point, MPAO1 evolved in D-CONGA-Q7): 7 mg/L (≈ 16.1 µM) | MIC (MPAO1 [6]; read-out: Average MIC at end point, MPAO1 passaged with No Antibiotic (Table 4)): 3 mg/L (≈ 6.89 µM) | MIC (MPAO1 [6]; read-out: Average MIC at end point, MPAO1 passaged with No Antibiotic (Table 8)): 4 mg/L (≈ 9.19 µM)

Polymyxin B
MIC, average of triplicates (MPAO1-ΔmutS [1]; strain ΔmutS): 2 mg/L | MIC, average of triplicates (MPAO1-ΔmutL [2]; strain ΔmutL): 3 mg/L | MIC, average of triplicates (PAO1): 2 mg/L | MIC, average of triplicates (MPAO1 [3]): 2 mg/L | Average MIC at end point (MPAO1-ΔmutS [4]; MPAO1-ΔmutS evolved in AZ): 2 mg/L | fold-change relative to starting MIC before treatment (MPAO1-ΔmutS [4]; MPAO1-ΔmutS evolved in AZ): 1 | Average MIC at end point (MPAO1-ΔmutS [4]; [8]): 2 mg/L | fold-change relative to starting MIC before treatment (MPAO1-ΔmutS [4]; [8]): 1 | Average MIC at end point (MPAO1-ΔmutS [4]; [9]): 2 mg/L | fold-change relative to starting MIC before treatment (MPAO1-ΔmutS [4]; [9]): 1 | Average MIC at end point (MPAO1-ΔmutS [4]; [10]): 2 mg/L | fold-change relative to starting MIC before treatment (MPAO1-ΔmutS [4]; [10]): 1 | Average MIC at end point (MPAO1-ΔmutS [4]; MPAO1-ΔmutS evolved in COL): 27 mg/L | fold-change relative to starting MIC before treatment (MPAO1-ΔmutS [4]; MPAO1-ΔmutS evolved in COL): 8 | Average MIC at end point (MPAO1-ΔmutS [4]; MPAO1-ΔmutS evolved in Chl): 2 mg/L | fold-change relative to starting MIC before treatment (MPAO1-ΔmutS [4]; MPAO1-ΔmutS evolved in Chl): 1 | Average MIC at end point (MPAO1-ΔmutS [4]; MPAO1-ΔmutS evolved in D-CONGA): 3 mg/L | fold-change relative to starting MIC before treatment (MPAO1-ΔmutS [4]; MPAO1-ΔmutS evolved in D-CONGA): 1.33 | Average MIC at end point (MPAO1-ΔmutS [4]; [11]): 4 mg/L | fold-change relative to starting MIC before treatment (MPAO1-ΔmutS [4]; [11]): 2 | Average MIC at end point (MPAO1-ΔmutS [4]; [12]): 2 mg/L | fold-change relative to starting MIC before treatment (MPAO1-ΔmutS [4]; [12]): 1 | Average MIC at end point (MPAO1-ΔmutS [4]; [13]): 2 mg/L | fold-change relative to starting MIC before treatment (MPAO1-ΔmutS [4]; [13]): 1 | Average MIC at end point (MPAO1-ΔmutL [5]; [14]): 0.5 mg/L | fold-change relative to starting MIC before treatment (MPAO1-ΔmutL [5]; [14]): 0.25 | Average MIC at end point (MPAO1-ΔmutL [5]; [15]): 2 mg/L | fold-change relative to starting MIC before treatment (MPAO1-ΔmutL [5]; [15]): 0.6 | Average MIC at end point (MPAO1 [6]; MPAO1 evolved in AZ): 3 µg/mL | fold-change relative to starting MIC before treatment (MPAO1 [6]; MPAO1 evolved in AZ): 1.3 | Average MIC at end point (MPAO1 [6]; MPAO1 evolved in AZ + COL): 2 µg/mL | fold-change relative to starting MIC before treatment (MPAO1 [6]; MPAO1 evolved in AZ + COL): 1 | Average MIC at end point (MPAO1 [6]; MPAO1 evolved in AZ + D-CONGA): 2 µg/mL | fold-change relative to starting MIC before treatment (MPAO1 [6]; MPAO1 evolved in AZ + D-CONGA): 1 | Average MIC at end point (MPAO1 [6]; [16]): 2 µg/mL | fold-change relative to starting MIC before treatment (MPAO1 [6]; [16]): 1 | Average MIC at end point (MPAO1 [6]; MPAO1 evolved in COL): 2 µg/mL | fold-change relative to starting MIC before treatment (MPAO1 [6]; MPAO1 evolved in COL): 1 | Average MIC at end point (MPAO1 [6]; MPAO1 evolved in Chl): 2 µg/mL | fold-change relative to starting MIC before treatment (MPAO1 [6]; MPAO1 evolved in Chl): 1 | Average MIC at end point (MPAO1 [6]; MPAO1 evolved in D-CONGA): 4 µg/mL | fold-change relative to starting MIC before treatment (MPAO1 [6]; MPAO1 evolved in D-CONGA): 2.4 | Average MIC at end point (MPAO1 [6]; MPAO1 evolved in D-CONGA-Q7): 2 µg/mL | fold-change relative to starting MIC before treatment (MPAO1 [6]; MPAO1 evolved in D-CONGA-Q7): 1 | Average MIC at end point (MPAO1 [6]; [17]): 1 (1) μg/mL | fold-change relative to starting MIC before treatment (MPAO1 [6]; [17]): 1 (1) | Average MIC at end point (MPAO1 [6]; [18]): 2 µg/mL | fold-change relative to starting MIC before treatment (MPAO1 [6]; [18]): 1
